Values of other authors in patent publication US20210361561A1, “A pouch product suitable for application in an oral cavity” (priority 2019, published 2021).

Columns and labels:
CB1 receptors = CB1 receptors (Homo sapiens, UniProt P21554)
CB2 receptors = CB2 receptors (Homo sapiens, UniProt P34972); conditions: compared with CB1 receptors
Sequence of CB2 receptors (P34972 whole entry): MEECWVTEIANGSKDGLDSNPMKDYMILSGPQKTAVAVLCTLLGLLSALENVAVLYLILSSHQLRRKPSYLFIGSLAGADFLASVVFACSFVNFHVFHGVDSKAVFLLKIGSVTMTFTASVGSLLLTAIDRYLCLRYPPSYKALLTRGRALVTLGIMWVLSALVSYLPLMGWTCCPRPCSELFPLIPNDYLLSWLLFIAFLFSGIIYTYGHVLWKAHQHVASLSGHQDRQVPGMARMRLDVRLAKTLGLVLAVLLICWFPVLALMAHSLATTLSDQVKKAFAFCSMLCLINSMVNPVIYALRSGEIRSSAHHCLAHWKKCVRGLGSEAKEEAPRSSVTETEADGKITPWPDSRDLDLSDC

Sequence of CB1 receptors (P21554 whole entry): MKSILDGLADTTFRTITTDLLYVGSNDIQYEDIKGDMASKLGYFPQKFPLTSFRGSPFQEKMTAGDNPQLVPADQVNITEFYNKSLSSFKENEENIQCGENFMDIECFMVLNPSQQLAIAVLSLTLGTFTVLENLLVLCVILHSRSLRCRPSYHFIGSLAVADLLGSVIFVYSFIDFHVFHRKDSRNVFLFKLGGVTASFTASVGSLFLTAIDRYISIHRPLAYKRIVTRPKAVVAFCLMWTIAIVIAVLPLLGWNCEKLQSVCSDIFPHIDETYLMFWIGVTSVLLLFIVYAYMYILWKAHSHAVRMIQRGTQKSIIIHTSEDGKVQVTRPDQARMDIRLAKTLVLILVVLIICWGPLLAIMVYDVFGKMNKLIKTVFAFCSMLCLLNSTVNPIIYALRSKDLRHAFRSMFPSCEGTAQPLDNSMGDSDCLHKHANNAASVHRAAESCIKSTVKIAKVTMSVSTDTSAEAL

For `CCCCCc1cc(O)c2c(c1)OC(C)(C)c1ccc(C)cc1-2` [CBN, 6,6,9-Trimethyl-3-pentyl-benzo[c]chromen-1-ol], the “activity at the CB1 receptors” value (CB1 receptors) is given as “partial agonist”, the “affinities relative to THC” value (CB1 receptors; CB1 and CB2 receptors) is given as “lower affinities relative to THC” and the “affinity to CB2 receptors” value (CB2 receptors) is given as “higher affinity”.
